Results reported in ChEMBL document CHEMBL1201862, “PubChem BioAssay data set” (2004).
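Assay format: 96-well plates, 48-hour exposure. At the GI50, growth is halved.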 Activity calls are given as the source filed them. Rule as the data show it: active = GI50 up to about 1.1 µM and inactive = higher.

What was measured:
Assay in all cases: NCI anticancer screen, dose series, 48 h
[1] = test system: DLD-1
[2] = test system: DMS-114
[3] = test system: DMS-273
[4] = test system: HOP-18
[5] = test system: KM-20L2
[6] = test system: M19-MEL
[7] = test system: SNB-78
[8] = test system: XF498
[9] = test system: RXF 631

Compound	GI50 [1]	GI50 [2]	GI50 [3]	GI50 [4]	GI50 [5]	GI50 [6]	GI50 [7]	GI50 [8]	GI50 [9]
Clc1ccc(C2=Nc3ccccc3SC(c3cccs3)C2)cc1 (stereo unspecified)	10.1 µM (inactive)	15.2 µM (inactive)	14 µM (inactive)	18.6 µM (inactive)	16.6 µM (inactive)	15.2 µM (inactive)	28.9 µM (inactive)	16.1 µM (inactive)	–
CCOC(=O)c1cc(/C=C/C(C)=C/C(=O)OC)oc1C	> 100 µM (inactive)	> 100 µM (inactive)	–	–	> 100 µM (inactive)	> 100 µM (inactive)	> 100 µM (inactive)	> 100 µM (inactive)	–
CCC1c2cc3n(c(=O)c2COC1O)Cc1c-3nc2ccccc2c1Cl (stereo unspecified)	99.1 µM (inactive)	49.4 µM (inactive)	4.4 µM (inactive)	> 75.7 µM (inactive)	> 69.7 µM (inactive)	69.3 µM (inactive)	> 100 µM (inactive)	> 100 µM (inactive)	–
c1ccc2c(c1)CCc1c(-c3n[nH]c4c3CCc3ccccc3-4)n[nH]c1-2	> 100 µM (inactive)	> 100 µM (inactive)	> 100 µM (inactive)	> 100 µM (inactive)	> 100 µM (inactive)	> 100 µM (inactive)	> 100 µM (inactive)	> 100 µM (inactive)	> 100 µM (inactive)
CCOC(=O)C1=C(C)NC(=O)NC1c1ccc(OC)cc1OC (stereo unspecified)	> 100 µM (inactive)	> 100 µM (inactive)	> 100 µM (inactive)	> 100 µM (inactive)	> 100 µM (inactive)	> 100 µM (inactive)	> 100 µM (inactive)	> 100 µM (inactive)	–
N=C(N)NNC(=O)CCCCCCCC(=O)NNC(=N)N	> 100 µM (inactive)	62.7 µM (inactive)	> 100 µM (inactive)	–	> 100 µM (inactive)	> 100 µM (inactive)	> 100 µM (inactive)	–	> 100 µM (inactive)
Oc1cc2cc(-c3ccccc3)[nH]c2c2ccccc12	32 µM (inactive)	13.6 µM (inactive)	0.592 µM (active)	32.7 µM (inactive)	> 96.2 µM (inactive)	15.5 µM (inactive)	54.6 µM (inactive)	1.63 µM (inactive)	22.7 µM (inactive)
COc1nc(OC)c2c(=O)oc(-c3ccccc3)cc2n1	–	> 100 µM (inactive)	> 100 µM (inactive)	–	> 100 µM (inactive)	> 100 µM (inactive)	> 100 µM (inactive)	–	–
CCC12C=CCN3CC[C@]4(C(=C(C(=O)OC)[C@@H]1Nc1ccn(C5OC(COC(C)=O)C(OC(C)=O)C5OC(C)=O)c(=O)n1)Nc1ccccc14)C32 (stereo partly specified)	4.53 µM (inactive)	–	4.28 µM (inactive)	6.92 µM (inactive)	4.66 µM (inactive)	3.98 µM (inactive)	5.42 µM (inactive)	5.74 µM (inactive)	–
CCCc1c2c([nH]c(=O)c1C)C(=O)c1[nH]c(=O)c(C)c(CCC)c1C2=O	–	2.51 µM (inactive)	–	> 100 µM (inactive)	–	2.21 µM (inactive)	30.3 µM (inactive)	–	–
N=C(N)N/N=C/c1c[nH]c2ccccc12	> 100 µM (inactive)	81.8 µM (inactive)	> 100 µM (inactive)	> 100 µM (inactive)	> 100 µM (inactive)	–	> 100 µM (inactive)	–	–
CC(=O)NC(CCCN(Cc1ccccc1)C(=O)NCCCl)C(=O)NCc1ccccc1 (stereo unspecified)	> 100 µM (inactive)	> 100 µM (inactive)	> 100 µM (inactive)	> 100 µM (inactive)	> 100 µM (inactive)	> 100 µM (inactive)	> 100 µM (inactive)	–	–
CO[C@H](C(=O)O[C@H]1C(=O)N2CC[C@@H]3CCC[C@H]1C32C)c1ccccc1 (stereo partly specified)	> 100 µM (inactive)	> 100 µM (inactive)	–	–	> 100 µM (inactive)	> 100 µM (inactive)	> 100 µM (inactive)	–	–
O=C1C=CC(=O)c2nc3c(cc21)CCC3	18.7 µM (inactive)	18.3 µM (inactive)	20.3 µM (inactive)	14.5 µM (inactive)	–	17.2 µM (inactive)	18.5 µM (inactive)	18.6 µM (inactive)	> 100 µM (inactive)
CCC1=CC2CN3Cn4c(c(COCc5c6n(c7ccccc57)CN5CC7C=C(CC)C5C6(C(=O)OC)C7)c5ccccc54)C(C(=O)OC)(C2)C13	> 100 µM (inactive)	> 100 µM (inactive)	> 100 µM (inactive)	–	> 100 µM (inactive)	47.2 µM (inactive)	–	> 100 µM (inactive)	–
Cc1c(C(=O)Nc2ccc(Cl)c(C(F)(F)F)c2)oc2cc(O)ccc2/c1=N\NC(N)=S	> 100 µM (inactive)	> 100 µM (inactive)	> 100 µM (inactive)	> 100 µM (inactive)	> 100 µM (inactive)	> 100 µM (inactive)	> 100 µM (inactive)	> 100 µM (inactive)	–
Nc1cccc2c1C(=O)c1cccc(N)c1C2=O	> 100 µM (inactive)	–	> 100 µM (inactive)	–	> 100 µM (inactive)	> 100 µM (inactive)	> 100 µM (inactive)	19.4 µM (inactive)	> 100 µM (inactive)
Cc1nc(-c2nc(C)c(C(=O)/C=C/c3ccc(N(C)C)cc3)s2)sc1C(=O)/C=C/c1ccc(N(C)C)cc1	29.5 µM (inactive)	> 100 µM (inactive)	39.1 µM (inactive)	–	> 100 µM (inactive)	51.1 µM (inactive)	–	23.4 µM (inactive)	> 100 µM (inactive)
Nc1n[n+]([O-])c2ccccc2[n+]1[O-] [TIRAPAZAMINE]	–	44.4 µM (inactive)	52.2 µM (inactive)	–	–	95.9 µM (inactive)	> 100 µM (inactive)	44.4 µM (inactive)	> 100 µM (inactive)
CC1=C[C@H]2c3c([nH]c4ccccc34)C(c3c[nH]c4ccccc34)[C@H]2CC1 (stereo partly specified)	6.43 µM (inactive)	5.74 µM (inactive)	4.33 µM (inactive)	11.7 µM (inactive)	–	10.3 µM (inactive)	3.53 µM (inactive)	–	3.57 µM (inactive)
Cc1ccc(S(=O)(=O)N/N=C(\c2nc3ccc(Cl)cc3nc2O)C(O)c2cccc([N+](=O)[O-])c2)cc1 (stereo unspecified)	> 100 µM (inactive)	> 100 µM (inactive)	> 100 µM (inactive)	> 100 µM (inactive)	> 100 µM (inactive)	> 100 µM (inactive)	> 100 µM (inactive)	> 100 µM (inactive)	> 100 µM (inactive)
CCCCCCCCCCCC(=O)c1c(O)cccc1O	17.8 µM (inactive)	19.2 µM (inactive)	18.9 µM (inactive)	16.2 µM (inactive)	21.7 µM (inactive)	18.8 µM (inactive)	21.8 µM (inactive)	18.3 µM (inactive)	18.7 µM (inactive)
O=C(/C=C/c1ccc[nH]1)c1ccccc1	> 100 µM (inactive)	> 100 µM (inactive)	> 100 µM (inactive)	40.2 µM (inactive)	> 100 µM (inactive)	> 100 µM (inactive)	> 100 µM (inactive)	–	–
CN(C)c1ccc(C(C=C2c3ccccc3Sc3ccccc32)=C(C#N)C#N)cc1	> 100 µM (inactive)	56.4 µM (inactive)	6.81 µM (inactive)	> 100 µM (inactive)	89.1 µM (inactive)	> 100 µM (inactive)	45.1 µM (inactive)	58.7 µM (inactive)	> 100 µM (inactive)
Cc1ccc([S+](c2ccccc2)c2cc(C)ccc2C)cc1 (stereo unspecified)	1.81 µM (inactive)	1.08 µM (active)	0.859 µM (active)	1.38 µM (inactive)	–	1.62 µM (inactive)	–	–	–
COc1ccc2c(c1)CC1NC2Cc2ccccc21 (stereo unspecified)	> 100 µM (inactive)	> 100 µM (inactive)	–	> 100 µM (inactive)	> 100 µM (inactive)	> 100 µM (inactive)	> 100 µM (inactive)	> 100 µM (inactive)	–
Brc1cccc(C2SCc3nc4ccccc4n32)c1 (stereo unspecified)	12.9 µM (inactive)	13.7 µM (inactive)	–	–	–	18.2 µM (inactive)	28.3 µM (inactive)	–	–
CC(C)(C)C1CCC2(CC1)CCN(CCCN1CCOCC1)CC2	24.4 µM (inactive)	16.5 µM (inactive)	19.3 µM (inactive)	–	2.18 µM (inactive)	12.5 µM (inactive)	38.5 µM (inactive)	–	14.4 µM (inactive)
CCOC(=O)C1=C(Nc2cccc3ccccc23)OCC1=O	> 100 µM (inactive)	–	> 100 µM (inactive)	–	> 100 µM (inactive)	–	> 100 µM (inactive)	> 100 µM (inactive)	> 100 µM (inactive)
